The text below walks through data of patent publication US4316904A, “Indolopyrone tetrazoles and carboxamidotetrazoles having antiallergic activity” (priority 1979, dated 1982).

The test system of this test is Reaginic Passive Cutaneous Anaphylaxis (PCA). The experiment in a line: Rat Reaginic Passive Cutaneous Anaphylaxis (PCA). The test is classed as in vivo. The conditions noted are these: for inhibition in vivo at 5 mg/kg / inhibition in vivo at 1 mg/kg: ip, read-out: percent inhibition (PCA test); for inhibition (PCA test), oral: orally. As for the experimental part: The compounds of the invention are new chemical substances of value as pharmacological agents which prevent the allergic response in mammals by inhibition of the release of such allergic mediators, as histamine. The assay by which this utility was established is carried out as follows.
Rat Reaginic Passive Cutaneous Anaphylaxis (PCA)
The PCA test (D. J. Herzig, P. R. Schumann, E. J. Kusner, L. Robichaud, R. E. Giles, B. Dubnick, M. von Strandtmann, S. Klutchko, M. Cohen, and J. Shavel, Jr., "Immunopharmacology", M. E. Rosenthale and H. C. Mansmann, Eds., Spectrum Publications, Inc., New York, N.Y., 1975, pp. 103-124) involved immunization of rats with 1 mg of ovalbumin intramuscularly and approximately 10^10 B. pertussis organisms as pertussis vaccine, intraperitoneally. Fourteen days later, the rats were bled and the serum was prepared. Suitable dilutions of antiserum were injected intradermally at various sites on the back of rats 48 h before an intravenous injection of 1 mg of ovalbumin in 1 ml of physiological saline and 0.25% Evans Blue. Thirty minutes later the animals were killed in ether, the dorsal skin was reflected, and the mean orthogonal diameter of the wheal was measured. For oral or intraperitoneal dosing, the drugs were suspended in 1% gum tragacanth in physiological saline and given 10-15 min before intravenous antigen challenge. For intravenous dosing, the compounds were dissolved in the saline/ovalbumin/Evans Blue solution and given with the antigen. If necessary, the compounds were first dissolved in a slight molar excess of sodium bicarbonate and then diluted into the antigen solution. Groups of five animals were used for all dose levels and control groups.
To quantitate the PCA test, the mean diameter of each wheal spot was graphed as a function of the relative antiserum concentration. The line, fitted by the least-squares equation, was extrapolated to the value at "zero" antiserum concentration (base value). The following equation was then used to calculate the percent inhibition: [formula]
The statistical significance of the results was determined by Student's t test (p≤0.05). An inhibition of 15% was significant. The test results obtained for the compounds of the invention as well as for the corresponding acids (U.S. Pat. No. 4,028,383) are given as percent inhibition in the following table.

The mark [1] stands for this setting: 5 mg/kg, 10-15 min before intravenous antigen challenge.
Setting [2] is: 10-15 min before intravenous antigen challenge.

Consider `Cn1c2c([N+](=O)[O-])cc([N+](=O)[O-])cc2c2oc(C(=O)O)cc(=O)c21` [6,8-di-NO2 /CH3 A, 4,5-Dihydro-5-methyl-6,8-dinitro-4-oxopyrano[3,2-b]indole-2-carboxylic acid, reference compound], for which the inhibition in vivo at 5 mg/kg under setting [1] is 0%.
On the same count and under the same terms, then `Cn1c2c([N+](=O)[O-])cc([N+](=O)[O-])cc2c2oc(C(=O)Nc3nnn[nH]3)cc(=O)c21` [6,8-di-NO2 /CH3 C, 4,5-Dihydro-5-methyl-6,8-dinitro-4-oxo-N-1H-tetrazol-5-ylpyrano[3,2-b]indole-2-carboxamide], with 48%.
For `Cc1ccc2c(c1)c1oc(C(=O)O)cc(=O)c1n2C` [8-CH3 /CH3 A, 4,5-dihydro-5,8-dimethyl-4-oxopyrano[3,2-b]indole-2-carboxylic acid, reference compound], the inhibition in vivo at 1 mg/kg under setting [2] was determined as 18%.
As for `Cc1ccc2c(c1)c1oc(C(=O)Nc3nnn[nH]3)cc(=O)c1n2C` [8-CH3 /CH3 C, 4,5-Dihydro-5,8-dimethyl-4-oxo-N-1H-tetrazol-5-ylpyrano[3,2-b]indole-2-carboxamide], the inhibition in vivo at 1 mg/kg under setting [2] amounted to 33%. For the same compound, under setting [1], the inhibition in vivo at 5 mg/kg came out at 100%.
For `Cc1ccc2c(c1)c1oc(-c3nnn[nH]3)cc(=O)c1n2C` [8-CH3 /CH3 T, 5,8-Dimethyl-2-(1H-tetrazol-5-yl)pyrano[3,2-b]indol-4(5H)-one], the inhibition in vivo at 1 mg/kg under setting [2] is 25%. In addition, the inhibition in vivo at 5 mg/kg under setting [1] was found to be 100%. Further, the “inhibition (PCA test), oral” value (5 mg/kg) came to 56%.
For `Cn1c2ccc(Cl)cc2c2oc(C(=O)O)cc(=O)c21` [8-Cl/CH3 A, 8-chloro-4,5-dihydro-5-methyl-4-oxopyrano[3,2-b]indole-2-carboxylic acid, reference compound], under setting [1], the inhibition in vivo at 5 mg/kg worked out at 23%.
On to `Cn1c2ccc(Cl)cc2c2oc(C(=O)Nc3nnn[nH]3)cc(=O)c21` [8-Cl/CH3 C, 8-Chloro-4,5-dihydro-5-methyl-4-oxo-N-1H-tetrazol-5-ylpyrano[3,2-b]indole-2-carboxamide], for which, under setting [2], the inhibition in vivo at 1 mg/kg worked out at 38%. Further, under setting [1], the inhibition in vivo at 5 mg/kg is 100%.
Take `Cn1c2ccc(Cl)cc2c2oc(-c3nnn[nH]3)cc(=O)c21` [8-Cl/CH3 T, 8-Chloro-5-methyl-2-(1H-tetrazol-5-yl)pyrano[3,2-b]indol-4(5H)-one]: the inhibition in vivo at 1 mg/kg under setting [2] was 46%. Besides, the inhibition in vivo at 5 mg/kg under setting [1] was 100%. The “inhibition (PCA test), oral” value (5 mg/kg) turned out to be 33%.
Regarding `Cn1c2ccc([N+](=O)[O-])cc2c2oc(C(=O)O)cc(=O)c21` [8-NO2 /CH3 A, 4,5-Dihydro-5-methyl-8-nitro-4-oxopyrano-[3,2-b]indole-2-carboxylic acid, reference compound], under setting [2], the inhibition in vivo at 1 mg/kg was determined as 1%. Under setting [1], the inhibition in vivo at 5 mg/kg was 100%.
Turning to `Cn1c2ccc([N+](=O)[O-])cc2c2oc(C(=O)Nc3nnn[nH]3)cc(=O)c21` [8-NO2 /CH3 C, 4,5-Dihydro-5-methyl-8-nitro-4-oxo-N-1H-tetrazol-5-ylpyrano[3,2-b]indole-2-carboxamide], the inhibition in vivo at 1 mg/kg under setting [2] was 42%. Moreover, the inhibition in vivo at 5 mg/kg under setting [1] turned out to be 100%.
On to `O=C(O)c1cc(=O)c2c(o1)c1ccccc1n2-c1ccccc1` [H/.phi. A, reference compound], for which the inhibition in vivo at 1 mg/kg under setting [2] was 13%.
Turning to `O=C(Nc1nn[nH]n1)c1cc(=O)c2c(o1)c1ccccc1n2-c1ccccc1` [H/.phi. C], the “percent inhibition (PCA test)” value (i.p., 5 mg/kg, 10-15 min before intravenous antigen challenge) is recorded as “Inac”.
For `O=c1cc(-c2nnn[nH]2)oc2c3ccccc3n(-c3ccccc3)c12` [H/.phi. T, 5-Phenyl-2(1H-tetrazol-5-yl)pyrano[3,2-b]indol-4(5H)-one], the “inhibition (PCA test), intravenous” value (intravenously, 0.1 mg/kg, given with the antigen) worked out at 28%. The inhibition in vivo at 1 mg/kg under setting [2] was 61%. Further, under setting [1], the inhibition in vivo at 5 mg/kg turned out to be 100%. For the same compound, the “inhibition (PCA test), oral” value (2 mg/kg) was 32%.
For `CCn1c2ccccc2c2oc(C(=O)O)cc(=O)c21` [H/C2 H5 A, 5-ethyl-4,5-dihydro-4-oxopyrano[3,2-b]indole-2-carboxylic acid, reference compound], under setting [2], the inhibition in vivo at 1 mg/kg is 0%.
Consider `CCn1c2ccccc2c2oc(C(=O)Nc3nnn[nH]3)cc(=O)c21` [H/C2 H5 C, 5-Ethyl-4,5-dihydro-4-oxo-N-1H-tetrazol-5-ylpyrano[3,2-b]indole-2-carboxamide], for which the inhibition in vivo at 1 mg/kg under setting [2] turned out to be 12%. For the same compound, the inhibition in vivo at 5 mg/kg under setting [1] worked out at 100%.
As to `CCn1c2ccccc2c2oc(-c3nnn[nH]3)cc(=O)c21` [H/C2 H5 T, 5-Ethyl-2-(1H-tetrazol-5-yl)pyrano[3,2-b]indol-4(5H)-one], the inhibition in vivo at 1 mg/kg under setting [2] was determined as 100%. For the same compound, under setting [1], the inhibition in vivo at 5 mg/kg is 100%. Further, under “5 mg/kg”, the “inhibition (PCA test), oral” value came out at 70%.
Turning to `Cn1c2ccccc2c2oc(C(=O)O)cc(=O)c21` [H/CH3 A, 4,5-dihydro-5-methyl-4-oxopyrano[3,2-b]indole-2-carboxylic acid, reference compound], under setting [2], the inhibition in vivo at 1 mg/kg was found to be 30%. Under setting [1], the inhibition in vivo at 5 mg/kg was 100%.
Taken in the same sequence, the figures for `Cn1c2ccccc2c2oc(C(=O)Nc3nnn[nH]3)cc(=O)c21` [H/CH3 C, 4,5-Dihydro-5-methyl-4-oxo-N-1H-tetrazol-5-ylpyrano[3,2-b]indole-2-carboxamide] were 28% and 100%.
As to `Cn1c2ccccc2c2oc(-c3nnn[nH]3)cc(=O)c21` [H/CH3 T, 5-Methyl-2(1H-tetrazol-5-yl)pyrano[3,2-b]indol-4(5H)-one], the inhibition in vivo at 1 mg/kg under setting [2] came to 87%. For the same compound, under setting [1], the inhibition in vivo at 5 mg/kg came to 100%. Also, the “inhibition (PCA test), oral” value was 12% (2 mg/kg) and 39% (5 mg/kg).
